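Grown in 96-well plates, cells were treated for 48 hours with each compound at five concentrations. Insufficient inhibition: endpoint recorded as highest concentration tested. TGI marks complete inhibition of growth.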
Tests used:
Test in all cases: NCI anticancer screen, dose series, 48 h
EKVX NSCLC = tested on: EKVX NSCLC
OVCAR-4 ovarian = tested on: OVCAR-4 ovarian
SR leukemia = tested on: SR leukemia
BT-549 breast = tested on: BT-549 breast
RPMI-8226 leukemia = tested on: RPMI-8226 leukemia
SN12C renal = tested on: SN12C renal
A549 NSCLC = tested on: A549 NSCLC
UO-31 renal = tested on: UO-31 renal
NCI/ADR-RES ovarian = tested on: NCI/ADR-RES ovarian
OVCAR-3 ovarian = tested on: OVCAR-3 ovarian

Row | Structure (SMILES) | TGI (EKVX NSCLC) | TGI (OVCAR-4 ovarian) | TGI (SR leukemia) | TGI (BT-549 breast) | TGI (RPMI-8226 leukemia) | TGI (SN12C renal) | TGI (A549 NSCLC) | TGI (UO-31 renal) | TGI (NCI/ADR-RES ovarian) | TGI (OVCAR-3 ovarian)
1 | Cc1cc(Cc2cc(C)c(NC(=O)C(=O)C3CCC4=C(SC5C=CC=CC5N4)C3=O)c(C(C)C)c2)cc(C(C)C)c1NC(=O)C(=O)C1CCC2=C(SC3C=CC=CC3N2)C1=O (stereo not given) | > 100 µM | > 100 µM | > 100 µM | > 100 µM | > 100 µM | > 100 µM | > 100 µM | > 100 µM | > 100 µM | > 100 µM
2 | N#CC(=N)c1ncn(-c2ccc(N)cc2)c1N | > 100 µM | > 100 µM | > 100 µM | > 100 µM | > 100 µM | > 100 µM | > 100 µM | > 100 µM | > 100 µM | > 100 µM
3 | COc1ccc(Cc2nnc(Nc3ccc(Br)cc3)[nH]c2=O)cc1OC | > 100 µM | > 100 µM | > 94.3 µM | > 31.6 µM | > 100 µM | > 100 µM | > 100 µM | > 100 µM | > 100 µM | > 100 µM
4 | CC1(C)OC(=O)N(c2ccccc2)C12C=Cc1cccc([N+](=O)[O-])c1O2 (stereo not given) | > 100 µM | > 100 µM | 50.2 µM | > 100 µM | > 100 µM | > 100 µM | > 100 µM | > 100 µM | > 100 µM | > 100 µM
5 | CN(/N=C/c1cccc2cccnc12)c1ccc(Cl)cc1[N+](=O)[O-] | > 100 µM | > 100 µM | > 100 µM | > 100 µM | > 100 µM | > 100 µM | > 100 µM | > 100 µM | > 100 µM | > 100 µM
6 | CN(C)CCn1c(=O)c2ccc(NCCN3CCNCC3)c3c(=O)c4ccccc4n(c1=O)c23 | 18.6 µM | 32.3 µM | 0.322 µM | 22.9 µM | 2.93 µM | 14.6 µM | 15.9 µM | 17.9 µM | 30 µM | 25.1 µM
7 | O=C1CSC(c2ccccc2[N+](=O)[O-])N1c1ccc(-c2ccc(-n3c(-c4ccccc4)nc4ccccc4c3=O)cc2)cc1 (stereo not given) | > 100 µM | > 100 µM | > 100 µM | > 100 µM | > 100 µM | > 100 µM | > 100 µM | > 100 µM | > 100 µM | > 100 µM
8 | COc1cc(NCCC2CCCCN2)c2ncccc2c1 (stereo not given) | > 100 µM | > 100 µM | > 81.3 µM | > 100 µM | > 68.1 µM | > 77.2 µM | > 100 µM | > 100 µM | > 100 µM | > 62.7 µM
9 | NC(=O)NCCCC(NC(=O)OCCCCCCn1ccc(=O)[nH]c1=O)C(=O)O (stereo not given) | > 100 µM | > 100 µM | > 100 µM | > 100 µM | > 100 µM | > 100 µM | > 100 µM | > 100 µM | > 100 µM | > 100 µM
10 | NC(=O)Cc1nc2c(N)ncnc2n1C1OC(CO)C(O)C1O (stereo not given) | > 100 µM | > 100 µM | > 100 µM | > 100 µM | > 100 µM | > 100 µM | > 100 µM | > 100 µM | > 100 µM | > 100 µM
11 | O=C(c1ccccc1)c1ccc2[nH]c(-c3c(Cl)c(Cl)c(Cl)c(Cl)c3C(=O)N/N=C/c3cccc(Oc4ccccc4)c3)nc2c1 | > 100 µM | > 100 µM | > 100 µM | > 100 µM | > 100 µM | > 100 µM | > 100 µM | > 100 µM | > 100 µM | > 100 µM
12 | O=[N+]([O-])C(=C(N1CCOCC1)N1CCOCC1)/C(Cl)=C(\Cl)Br | 37.9 µM | 39.5 µM | 37.1 µM | 28.8 µM | 33.5 µM | 31.7 µM | > 100 µM | 43.4 µM | 52.9 µM | 28.5 µM
13 | CCOC(=O)C1(C(=O)OCC)OC(C)=NC1(C(=O)OC)C(=O)OC | > 100 µM | > 100 µM | > 100 µM | > 31.6 µM | > 24.6 µM | > 100 µM | > 100 µM | > 100 µM | > 100 µM | > 100 µM
14 | COc1ccc(CCCNC(=O)c2cc(OC)c(OC)cc2CCO)cc1OC | > 100 µM | > 100 µM | > 100 µM | > 100 µM | > 100 µM | > 100 µM | > 100 µM | > 100 µM | > 100 µM | > 100 µM
15 | NC(Cc1ccc(N(CCCl)CCCl)cc1)C(=O)NC(CCC(=O)O)C(=O)O (stereo not given) | > 100 µM | > 100 µM | > 100 µM | > 100 µM | > 100 µM | > 100 µM | > 100 µM | > 100 µM | > 100 µM | > 100 µM
16 | CCC(=O)Nc1ccc(NC(C#N)c2cccc(Oc3ccccc3)c2)cc1 (stereo not given) | > 100 µM | > 100 µM | 55 µM | > 100 µM | 66.9 µM | > 100 µM | > 100 µM | > 100 µM | > 100 µM | > 100 µM

Row | Structure (SMILES) | TGI (EKVX NSCLC) | TGI (OVCAR-4 ovarian) | TGI (SR leukemia) | TGI (BT-549 breast) | TGI (RPMI-8226 leukemia) | TGI (SN12C renal) | TGI (A549 NSCLC) | TGI (UO-31 renal) | TGI (NCI/ADR-RES ovarian) | TGI (OVCAR-3 ovarian)
17 | C/C=C(\C)C(O)C(C)C(O)C/C=C(C)/C=C(\C)C/C(C)=C/C/C=C(\C)C(O)C(C)c1ccc(CCC)c(=O)o1 (stereo not given) | > 100 µM | 65.4 µM | > 100 µM | 25 µM | > 100 µM | 46.2 µM | 27.8 µM | 21 µM | 29.7 µM | 27.8 µM
18 | C=C(CCC/C(C)=C/C=C/[C@@H](C)CCCc1ccoc1)C[C@@H]1OC(=O)[C@H](C)[C@@H]1O | 19.4 µM | 20.1 µM | > 50 µM | 17.1 µM | 43.4 µM | 20.6 µM | 17 µM | 15.9 µM | 19.9 µM | 16 µM
19 | Nc1nc2ncc(CNc3ccc(C(=O)NC(CCC(=O)O)C(=O)O)cc3)nc2c(=O)[nH]1 (stereo not given) | > 100 µM | > 100 µM | > 100 µM | > 100 µM | > 100 µM | > 100 µM | > 100 µM | > 100 µM | > 100 µM | > 100 µM
20 | COC(=O)c1cc(C(=CCC[C@H]2CC[C@@]3(C)C(CCC4C3CC[C@@]3(C)C4CC[C@@H]3C(C)CCCC(C)C)C2)c2cc(Cl)c(O)c(C(=O)OC)c2)cc(Cl)c1O (stereo not given in full) | > 10 µM | > 10 µM | > 10 µM | > 10 µM | > 10 µM | > 10 µM | > 10 µM | > 10 µM | > 10 µM | > 10 µM
21 | CS(=O)(=O)c1ccc(N=C/C=C/Nc2ccc(S(C)(=O)=O)cc2)cc1 | > 100 µM | > 100 µM | > 100 µM | > 100 µM | > 100 µM | > 100 µM | > 100 µM | > 100 µM | > 100 µM | > 100 µM
22 | COC(=O)C(Cc1c[nH]c2ccccc12)NC(=O)c1ccc(-c2ccc(Cl)cc2Cl)o1 (stereo not given) | > 100 µM | > 100 µM | > 100 µM | > 100 µM | > 100 µM | > 100 µM | > 100 µM | > 100 µM | > 100 µM | > 100 µM
23 | COC(=O)C1(C#N)C(C)(C)N=C(c2ccccc2)C12CCCCC2 (stereo not given) | > 100 µM | > 100 µM | > 100 µM | > 100 µM | > 100 µM | > 100 µM | > 100 µM | > 100 µM | > 100 µM | > 100 µM
24 | C=CCN(C(=O)OC(C)(C)C)[C@H](C)C(=O)N[C@@H](C)C(=O)OC | > 100 µM | > 100 µM | > 100 µM | > 100 µM | > 100 µM | > 100 µM | > 100 µM | > 100 µM | > 100 µM | > 100 µM
25 | CC1(C)Cc2nc3c(cc2C(=O)C1C=N/C(C#N)=C(\N)C#N)C(=O)C(C=N/C(C#N)=C(\N)C#N)C(C)(C)C3 (stereo not given) | 6.01 µM | > 100 µM | > 100 µM | 5.51 µM | > 27.7 µM | 5.23 µM | 8.31 µM | 3.51 µM | > 42 µM | 11 µM
26 | CC(=O)Nc1c(C)cc2c(nc3n2CCC3OC(C)=O)c1[N+](=O)[O-] (stereo not given) | > 100 µM | > 100 µM | > 100 µM | > 100 µM | > 100 µM | > 100 µM | > 100 µM | > 100 µM | > 100 µM | > 100 µM
27 | C/C(CC(O)(/C=N/O)c1ccccc1)=N/O (stereo not given) | > 100 µM | > 100 µM | > 100 µM | > 100 µM | > 100 µM | > 100 µM | > 100 µM | > 100 µM | > 100 µM | > 100 µM
28 | Cn1c(=O)c2c(nc3n2CCCC(=O)N3CC(O)CCl)n(C)c1=O (stereo not given) | > 100 µM | > 100 µM | > 100 µM | > 100 µM | > 100 µM | > 100 µM | > 100 µM | > 100 µM | > 100 µM | > 100 µM
29 | CC[C@@]1(C)CCC2c3ccc(O)cc3CC[C@H]2C1C (stereo not given in full) | 34 µM | 35.7 µM | 31.6 µM | 33.8 µM | 39.5 µM | 34.3 µM | 33.6 µM | 30.4 µM | 35.7 µM | 37 µM
30 | O=C1C2=C(CC3=C(C2)CS(=O)(=O)C3)C(=O)C2=C1CC1=C(C2)CS(=O)(=O)C1 | > 62.7 µM | > 33.1 µM | 18.6 µM | 44.8 µM | 55.5 µM | 30.2 µM | > 100 µM | > 63.4 µM | 66.5 µM | 9.03 µM
31 | COc1ccccc1C1ON=C(c2ccc([N+](=O)[O-])cc2)N1C12CC3CC(CC(C3)C1)C2 (stereo not given) | > 100 µM | > 100 µM | > 100 µM | > 100 µM | > 100 µM | > 100 µM | > 100 µM | > 100 µM | > 100 µM | > 100 µM

— PubChem BioAssay (NCI)
